Measured values from patent publication US20250195536A1, “BICYCLOOCTANE KRAS INHIBITORS” (Incyte Corporation, priority 2023, published 2025).

Experiments:
[1] = molecular target: KRAS G12D (Homo sapiens, UniProt P01116, G12D); test: GDP-GTP exchange assay (KRAS G12D); format: biochemical; conditions: bodipy-GDP/GppNHp exchange with SOS1; 4 h pre-incubation, 2 h reaction;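 note: one dagger IC50 up to 100 nM and two daggers above 100 nM up to 1 μM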
In short: (§1)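 IC50 came from a four-parameter fit of fluorescence loss (485/520 nm) as SOS1 (150 nM) swapped bodipy-GDP for GppNHp (500 μM) on 2.5 nM KRAS, final concentrations. Compounds were pre-incubated 4 h at r.t. (pH 7.5 Hepes, 10 mM MgCl2); exchange ran 2 h (G12D) or 3 h (G12V).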

[2] = molecular target: KRAS G12V (Homo sapiens, UniProt P01116, G12V); test: GDP-GTP exchange assay (KRAS G12V); format: biochemical; conditions: bodipy-GDP/GppNHp exchange with SOS1; 3 h incubation after GppNHp-SOS1;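 note: one dagger IC50 up to 100 nM and two daggers above 100 nM up to 1 μM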
In short: as §1

[3] = Caco2 assay (permeability, Papp A-B); format: in vitro ADME; conditions: human, Caco-2, absorptive direction (A-B), 50 μM test compound, 4% BSA in receiver
In short: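 Absorptive (A-B) Papp: 50 μM test compound in HBSS added to apical side of 22-25-day Caco-2 monolayers (TEER 300 Ω·cm^2), receiver buffer containing 4% BSA. After 120 min at 37 °C, 5% CO2, both sides analysed by LCMS; Papp calculated from flux rate normalized to area and donor amount.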

KRAS G12V, sequence (P01116 1-188 isoform P01116-2 G12V): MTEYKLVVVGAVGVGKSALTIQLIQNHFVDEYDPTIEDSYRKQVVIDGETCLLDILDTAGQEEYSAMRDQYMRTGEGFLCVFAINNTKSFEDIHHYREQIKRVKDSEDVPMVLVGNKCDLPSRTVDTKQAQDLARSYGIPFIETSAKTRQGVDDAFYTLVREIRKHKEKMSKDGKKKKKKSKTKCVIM
KRAS G12D, sequence (P01116 1-188 isoform P01116-2 G12D): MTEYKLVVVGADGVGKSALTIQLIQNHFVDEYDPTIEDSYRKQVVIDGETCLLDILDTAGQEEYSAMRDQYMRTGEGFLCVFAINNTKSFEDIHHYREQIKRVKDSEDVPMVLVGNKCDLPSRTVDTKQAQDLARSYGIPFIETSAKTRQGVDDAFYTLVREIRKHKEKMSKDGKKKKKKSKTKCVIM

Row | Structure (SMILES) | G12D_exchange (KRAS_G12D exchange assay IC50) [1] | G12V_exchange (KRAS_G12V exchange assay IC50) [2] | Papp A→B at 120 min, 50 μM [3] [×10⁻⁶ cm/s]
1 | Cc1nc2c(F)c(-c3cccc(Cl)c3Cl)c(CCC#N)cc2c2c1cc([C@H]1[C@H]3C[C@H](CN(c4cccc(C#N)c4)C3)N1C(=O)C1CC1)n2[C@H]1[C@H]2CN[C@@H]1C2 (atropisomer, axis not shown; (Ra)) [Example 17, 3-((1S,5R,7R)-7-((Ra)-1-((1R,4R,5S)-2-azabicyclo[2.1.1]hexan-5-yl)-8-(2-cyanoethyl)-7-(2,3-dichlorophenyl)-6-fluoro-4-methyl-1H-pyrrolo[3,2-c]quinolin-2-yl)-6-(cyclopropanecarbonyl)-3,6-diazabicyclo[3.2.1]octan-3-yl)benzonitrile] | †† | † | ≤ 0.5
2 | Cc1nc2c(F)c(-c3cccc(Cl)c3Cl)c(CCC#N)cc2c2c1cc([C@H]1[C@H]3C[C@H](CN(c4nccc(C(F)F)c4F)C3)N1C(=O)C1CC1)n2[C@H]1[C@H]2CN[C@@H]1C2 (atropisomer, axis not shown; (Ra)) [Example 54, 3-((Ra)-1-((1R,4R,5S)-2-azabicyclo[2.1.1]hexan-5-yl)-2-((1S,5R,7R)-6-(cyclopropanecarbonyl)-3-(4-(difluoromethyl)-3-fluoropyridin-2-yl)-3,6-diazabicyclo[3.2.1]octan-7-yl)-7-(2,3-dichlorophenyl)-6-fluoro-4-methyl-1H-pyrrolo[3,2-c]quinolin-8-yl)propanenitrile] | † | † | ≤ 0.5
3 | Cc1nc2c(F)c(-c3cccc(Cl)c3Cl)c(CCC#N)cc2c2c1cc([C@H]1[C@H]3C[C@H](CN(c4cc(C)n(C)n4)C3)N1C(=O)C1CC1)n2[C@H]1[C@H]2CN[C@@H]1C2 (atropisomer, axis not shown; (Ra)) [Example 105, 3-((Ra)-1-((1R,4R,5S)-2-azabicyclo[2.1.1]hexan-5-yl)-2-((1S,5R,7R)-6-(cyclopropanecarbonyl)-3-(1,5-dimethyl-1H-pyrazol-3-yl)-3,6-diazabicyclo[3.2.1]octan-7-yl)-7-(2,3-dichlorophenyl)-6-fluoro-4-methyl-1H-pyrrolo[3,2-c]quinolin-8-yl)propanenitrile] | † | † | ≤ 0.5
4 | Cc1nc2c(F)c(-c3cccc(Cl)c3Cl)c(CCC#N)cc2c2c1cc([C@H]1[C@H]3C[C@H](CN(c4ccn(CC(C)C)c(=O)c4)C3)N1C(=O)C1CC1)n2[C@H]1[C@H]2CN[C@@H]1C2 (atropisomer, axis not shown; (Ra)) [Example 58, 3-((Ra)-1-((1R,4R,5S)-2-azabicyclo[2.1.1]hexan-5-yl)-2-((1S,5R,7R)-6-(cyclopropanecarbonyl)-3-(1-isobutyl-2-oxo-1,2-dihydropyridin-4-yl)-3,6-diazabicyclo[3.2.1]octan-7-yl)-7-(2,3-dichlorophenyl)-6-fluoro-4-methyl-1H-pyrrolo[3,2-c]quinolin-8-yl)propanenitrile] | † | † | ≤ 0.5
5 | Cc1nc2c(F)c(-c3cccc(Cl)c3Cl)c(CCC#N)cc2c2c1cc([C@H]1[C@H]3C[C@H](CN(c4cc(C(F)F)ccn4)C3)N1C(=O)C1CC1)n2[C@H]1[C@H]2CN[C@@H]1C2 (atropisomer, axis not shown; (Ra)) [Example 89, 3-((Ra)-1-((1R,4R,5S)-2-azabicyclo[2.1.1]hexan-5-yl)-2-((1S,5R,7R)-6-(cyclopropanecarbonyl)-3-(4-(difluoromethyl)pyridin-2-yl)-3,6-diazabicyclo[3.2.1]octan-7-yl)-7-(2,3-dichlorophenyl)-6-fluoro-4-methyl-1H-pyrrolo[3,2-c]quinolin-8-yl)propanenitrile] | † | † | ≤ 0.5
6 | Cc1nc2c(F)c(-c3cccc(Cl)c3Cl)c(CCC#N)cc2c2c1cc([C@H]1[C@H]3C[C@H](CN(c4ccn5ncnc5c4)C3)N1C(=O)C1CC1)n2[C@H]1[C@H]2CN[C@@H]1C2 (atropisomer, axis not shown; (Ra)) [Example 72, 3-((Ra)-2-((1S,5R,7R)-3-([1,2,4]triazolo[1,5-a]pyridin-7-yl)-6-(cyclopropanecarbonyl)-3,6-diazabicyclo[3.2.1]octan-7-yl)-1-((1R,4R,5S)-2-azabicyclo[2.1.1]hexan-5-yl)-7-(2,3-dichlorophenyl)-6-fluoro-4-methyl-1H-pyrrolo[3,2-c]quinolin-8-yl) propanenitrile] | † | † | ≤ 0.5
7 | Cc1nc2c(F)c(-c3cccc(Cl)c3Cl)c(CCC#N)cc2c2c1cc([C@H]1[C@H]3C[C@H](CN(c4ccon4)C3)N1C(=O)C1CC1)n2[C@H]1[C@H]2CN[C@@H]1C2 (atropisomer, axis not shown; (Ra)) [Example 100, 3-((Ra)-1-((1R,4R,5S)-2-azabicyclo[2.1.1]hexan-5-yl)-2-((1S,5R,7R)-6-(cyclopropanecarbonyl)-3-(isoxazol-3-yl)-3,6-diazabicyclo[3.2.1]octan-7-yl)-7-(2,3-dichlorophenyl)-6-fluoro-4-methyl-1H-pyrrolo[3,2-c]quinolin-8-yl)propanenitrile] | † | † | ≤ 0.5
8 | Cc1nc2c(F)c(-c3cccc(Cl)c3Cl)c(CCC#N)cc2c2c1cc([C@H]1[C@H]3C[C@H](CN(c4cccc(Cl)c4)C3)N1C(=O)C1CC1)n2[C@H]1[C@H]2CN[C@@H]1C2 (atropisomer, axis not shown; (Ra)) [Example 19, 3-((Ra)-1-((1R,4R,5S)-2-azabicyclo[2.1.1]hexan-5-yl)-2-((1S,5R,7R)-3-(3-chlorophenyl)-6-(cyclopropanecarbonyl)-3,6-diazabicyclo[3.2.1]octan-7-yl)-7-(2,3-dichlorophenyl)-6-fluoro-4-methyl-1H-pyrrolo[3,2-c]quinolin-8-yl)propanenitrile] | †† | † | ≤ 0.5
9 | Cc1nc2c(F)c(-c3cccc(Cl)c3Cl)c(CCC#N)cc2c2c1cc([C@H]1[C@H]3C[C@H](CN(c4ccc(OC(F)F)cc4)C3)N1C(=O)C1CC1)n2[C@H]1[C@H]2CN[C@@H]1C2 (atropisomer, axis not shown; (Ra)) [Example 25, 3-((Ra)-1-((1R,4R,5S)-2-azabicyclo[2.1.1]hexan-5-yl)-2-((1S,5R,7R)-6-(cyclopropanecarbonyl)-3-(4-(difluoromethoxy)phenyl)-3,6-diazabicyclo[3.2.1]octan-7-yl)-7-(2,3-dichlorophenyl)-6-fluoro-4-methyl-1H-pyrrolo[3,2-c]quinolin-8-yl)propanenitrile] | †† | † | ≤ 0.5
